*1 amine or outer side, *2 acyl side, *3 side chain or, on linkers, in order; H or OH if unused. Where a SMILES comes first, the peptide text is derived from it. Side-chain parts run from the residue outwards. [ ]: non-standard residue; d: D form. The star is where a group is joined. γGlu = O=C(O)[C@H](CCC(=O)[*:2])N[*:1]; Palmitoyl = CCCCCCCCCCCCCCCC(=O)*; Aib = CC(C)(N)C(=O)O
Tests used:
[1] = food intake of obese rhesus monkeys dosed daily for 21 days (Example 8); type: in vivo; details: 3 μg/kg s.c. daily for 21 days
Experimental: (§1) The in vivo effects of a peptide of the invention were confirmed in obese rhesus monkeys by administering daily for 21 days a vehicle control, a commercially available product (Liraglutide), a peptide of SEQ ID NO: 20, or a peptide of SEQ ID NO: 17. […] Body weight and food intake were measured.

[2] = fasting blood glucose (FBG) of diabetic rhesus monkeys treated for 10 days (Example 9); type: in vivo; details: 1 μg/kg s.c. for 10 days
Experimental: (§2) The in vivo effects of a peptide of the invention were tested in diabetic rhesus monkeys (n=7) that were aged 16-26 years and having an average body weight of […]. Diabetic rhesus monkeys (n=7) that were aged 16-26 years with an average body weight of […] were administered a vehicle control, Liraglutide at a dose of 10 μg/kg s.c. or a peptide of SEQ ID NO: 17 at a dose of 1 μg/kg s.c. for 10 days. At the end of each treatment, fasting blood glucose (FBG) was measured first followed by a Meal Tolerance Test (MTT) to assess glucose tolerance. […] Data are expressed in FIG. 4 as mean±SEM. *P<0.05 versus vehicle.

[3] = body weight of diet-induced obese (DIO) mice dosed daily for nine days (Example 7); type: in vivo; details: Day 9
Experimental: (§3) Mice were administered a vehicle control or a dose of a peptide daily for nine days. The peptides tested in this study included a peptide of SEQ ID NO: 12, a peptide of SEQ ID NO: 17, a peptide of SEQ ID NO: 18, and a peptide of SEQ ID NO: 19. Doses of each peptide were varied—each of the peptides of SEQ ID NO: 12, 17, and 19 was administered at a dose of either 3 nmol/kg or 9 nmol/kg, while the peptide of SEQ ID NO: 18 was administered at a dose of 1 nmol/kg, 3 nmol/kg, or 9 nmol/kg. Data are expressed as mean±SEM.

[4] = body weight of obese rhesus monkeys dosed daily for 21 days (Example 8); type: in vivo
Experimental: as §1

human GLP-1R = human GLP-1R (Homo sapiens, UniProt P43220); assay: cAMP production in CHO-K1 cells stably expressing human GLP-1R, DiscoveRx Hithunter cAMP XS+ (Example 4); type: cell-based; set-up: host or cells: CHO-K1; details: CHO-K1 stably expressing human GLP-1R, procedure of Example 4
Experimental: (§4) The in vitro agonist potencies of the peptide of SEQ ID NO. 17 were determined using Chinese Hamster Ovary cells (CHO-K1) stably expressing human GLP-1R, GCGR or GIPR. The GLP-1R and GCGR stable cell line isogenic pools were generated by Invitrogen using their Jump-In™ targeted integration technology, whereas the stable CHO/GIPR lines were generated through classic cloning and transfection techniques (random integration) with limited dilution for selection of clones. The peptides were tested in vitro for their relative abilities to stimulate cAMP production in the various cell lines using the DiscoveRx Hithunter™ cAMP XS+ assay kit (cat#90-0075L) as per kit instructions.

[5] = ambient glucose levels of DIO mice dosed daily for nine days (Example 7); type: in vivo
Experimental: as §3
In addition to cumulative body weight change, ambient glucose levels of the DIO mice were measured.

human GIPR = biological target: T1, human GIPR (Homo sapiens, UniProt P48546); assay: cAMP production in CHO-K1 cells stably expressing human GIPR, DiscoveRx Hithunter cAMP XS+ (Example 4); type: cell-based; details: procedure of Example 4, read-out: EC50 (nM) at GIP receptor
T1 construct: expressed in transfected cells; host or cells: CHO-K1
T1 sequence (P48546 22-466): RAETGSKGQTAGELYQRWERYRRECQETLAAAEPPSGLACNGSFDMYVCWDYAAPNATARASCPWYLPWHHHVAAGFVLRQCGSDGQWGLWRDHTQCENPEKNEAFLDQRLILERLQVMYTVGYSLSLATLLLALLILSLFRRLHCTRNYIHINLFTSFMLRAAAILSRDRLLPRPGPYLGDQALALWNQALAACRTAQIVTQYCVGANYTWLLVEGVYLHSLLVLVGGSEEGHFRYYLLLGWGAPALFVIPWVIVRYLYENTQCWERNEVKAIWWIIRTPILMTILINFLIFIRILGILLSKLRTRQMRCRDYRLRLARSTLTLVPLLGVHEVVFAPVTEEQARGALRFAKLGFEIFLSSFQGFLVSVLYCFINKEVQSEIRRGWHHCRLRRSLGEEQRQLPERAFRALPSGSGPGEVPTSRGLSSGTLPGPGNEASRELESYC
Experimental: as §4

[6] = Meal Tolerance Test (MTT) in diabetic rhesus monkeys treated for 10 days (Example 9); type: in vivo; details: 1 μg/kg s.c. for 10 days
Experimental: as §2

human GCGR = biological target: T2, human GCGR (Homo sapiens, UniProt P47871); assay: cAMP production in CHO-K1 cells stably expressing human GCGR, DiscoveRx Hithunter cAMP XS+ (Example 4); type: cell-based; details: procedure of Example 4
T2 construct: host or cells: CHO-K1
Experimental: as §4

Chain of human GLP-1R (P43220 24-463): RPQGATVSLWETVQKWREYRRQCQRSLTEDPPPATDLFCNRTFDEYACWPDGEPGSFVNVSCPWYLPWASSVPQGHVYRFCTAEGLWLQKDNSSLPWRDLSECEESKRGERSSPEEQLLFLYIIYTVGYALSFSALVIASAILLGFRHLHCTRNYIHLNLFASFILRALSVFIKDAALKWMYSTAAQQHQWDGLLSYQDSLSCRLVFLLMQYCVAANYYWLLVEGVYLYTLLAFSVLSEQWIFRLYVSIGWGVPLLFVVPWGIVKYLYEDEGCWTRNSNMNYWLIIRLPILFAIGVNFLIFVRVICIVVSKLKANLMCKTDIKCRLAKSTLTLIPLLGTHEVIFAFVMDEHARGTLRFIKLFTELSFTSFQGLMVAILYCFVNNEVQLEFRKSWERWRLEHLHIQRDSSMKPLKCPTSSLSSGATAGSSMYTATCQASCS
T2 sequence (P47871 26-477): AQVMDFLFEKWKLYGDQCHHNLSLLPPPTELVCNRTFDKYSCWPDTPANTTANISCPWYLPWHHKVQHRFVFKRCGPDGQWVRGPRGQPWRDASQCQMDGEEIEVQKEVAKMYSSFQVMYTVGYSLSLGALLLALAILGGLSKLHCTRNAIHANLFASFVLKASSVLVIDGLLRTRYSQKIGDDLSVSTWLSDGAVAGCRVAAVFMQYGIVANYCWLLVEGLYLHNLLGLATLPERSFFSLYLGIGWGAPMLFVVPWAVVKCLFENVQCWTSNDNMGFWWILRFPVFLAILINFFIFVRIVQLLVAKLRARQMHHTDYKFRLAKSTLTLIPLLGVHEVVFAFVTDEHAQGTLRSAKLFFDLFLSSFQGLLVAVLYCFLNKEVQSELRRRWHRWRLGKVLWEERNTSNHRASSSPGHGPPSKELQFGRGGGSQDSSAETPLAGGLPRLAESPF

## CCCCCCCCCCCCCCCC(=O)N[C@@H](CCC(=O)N[C@@H](CCC(=O)NCCCC[C@H](NC(=O)[C@H](CC(=O)O)NC(=O)[C@H](CO)NC(=O)[C@@H](NC(=O)[C@H](Cc1ccccc1)NC(=O)[C@@H](NC(=O)CNC(=O)[C@H](CCC(N)=O)NC(=O)C(C)(C)NC(=O)[C@@H](N)Cc1c[nH]cn1)[C@@H](C)O)[C@@H](C)O)C(=O)N[C@@H](CO)C(=O)N[C@@H](CCCCN)C(=O)N[C@@H](Cc1ccc(O)cc1)C(=O)N[C@@H](CC(C)C)C(=O)N[C@@H](CC(=O)O)C(=O)NC(C)(C)C(=O)N[C@@H](CCCNC(=N)N)C(=O)N[C@@H](C)C(=O)N[C@@H](C)C(=O)N[C@@H](CCC(N)=O)C(=O)N[C@@H](CC(=O)O)C(=O)N[C@@H](Cc1ccccc1)C(=O)N[C@H](C(=O)N[C@@H](CCC(N)=O)C(=O)N[C@@H](Cc1c[nH]c2ccccc12)C(=O)N[C@@H](CC(C)C)C(=O)N[C@@H](CCSC)C(=O)N[C@@H](CC(N)=O)C(=O)N[C@H](C(=O)N[C@@H](CCCCN)C(=O)N[C@@H](CCC(N)=O)C(=O)O)[C@@H](C)O)C(C)C)C(=O)O)C(=O)O [SEQ ID NO: 17] (H-H[Aib]QGTFTSDK([γGlu-γGlu-Palmitoyl])SKYLD[Aib]RAAQDFVQWLMNTKQ-OH; N-terminus assumed)
[1]
  food intake, % change vs. baseline: −25.7%
[2]
  FBG change vs. vehicle: −25%
[2]; mean±SEM
  fasting blood glucose (FBG): 120 ± 20 mg/dL
[3]; 3 nmol/kg daily
  body weight reduction: ~9.6%
[3]; 9 nmol/kg daily
  body weight loss: ~35.5%
[4]; 3 μg/kg s.c. daily for 21 days
  weight loss vs. baseline and vehicle: -1.2 kg
[4]; Day 28, after 21 days at 3 μg/kg s.c.
  body weight following a one week wash-out: regained much of the weight that was lost
Human GLP-1R
  EC50: 0.075 nM
[5]; 3 nmol/kg daily, Day 7
  reduction in glucose levels compared to vehicle control mice: ~28%
[5]; 3 nmol/kg daily, Day 9
  decrease in glucose levels compared to vehicle control mice: ~19%
[5]; 9 nmol/kg daily, Day 4
  decrease in glucose levels compared to vehicle control mice: ~48%
[5]; 9 nmol/kg daily, Day 7
  decrease in glucose levels compared to vehicle control mice: ~48%
[5]; 9 nmol/kg daily, Day 9
  decrease in glucose levels compared to vehicle control mice: ~45%
Human GIPR
  EC50: > 2000 nM
[6]
  glucose tolerance during MTT as compared to vehicle: improved glucose tolerance
Human GCGR
  EC50: 0.11 nM
